Where two headings read alike, the source gives them in different places.
Key:
human CB1 receptor = biological target: T1, human CB1 receptor (Homo sapiens, UniProt P21554); test: In-vitro determination of efficacy and potency at the human CB1 receptor expressed in CHO cells (luciferase reporter); format: cell-based
T1 construct: expressed in transfected cells; host or cells: CHO (Chinese Hamster Ovary) cells

Mice = test: Tail flick latency in mice; format: in vivo; conditions: Mus musculus, iv, administered intravenously, ED50 calculated at Tmax, read-out: ED50 (increase of tail flick latency)
Experimental: Mice were trained to sit still in a tail flick apparatus (Ugo Basile, Italy) whilst tail flick latency was measured. The tail was exposed to a focused beam of radiant heat at a point approximately 2.5 cm from the tip. Tail flick latency was defined as the interval between the appliance of the thermal stimulus and withdrawal of the tail. A 12 second cut-off was employed to prevent tissue damage. Four groups of eight mice were treated with vehicle or one of three doses of the test compound, administered intravenously (vehicle: saline 9 g/l; injection volume 10 ml/kg). Tail flick latency was measured before administration of the test compound and at regular intervals (typically 20, 40 and 60 minutes) after compound administration. The ED50 was calculated at Tmax.

[1] = CHO cells expressing the human CB1 receptor and a luciferase reporter gene, 5 hours incubation, read-out: pEC50 (converted)

T1 sequence (P21554 whole entry): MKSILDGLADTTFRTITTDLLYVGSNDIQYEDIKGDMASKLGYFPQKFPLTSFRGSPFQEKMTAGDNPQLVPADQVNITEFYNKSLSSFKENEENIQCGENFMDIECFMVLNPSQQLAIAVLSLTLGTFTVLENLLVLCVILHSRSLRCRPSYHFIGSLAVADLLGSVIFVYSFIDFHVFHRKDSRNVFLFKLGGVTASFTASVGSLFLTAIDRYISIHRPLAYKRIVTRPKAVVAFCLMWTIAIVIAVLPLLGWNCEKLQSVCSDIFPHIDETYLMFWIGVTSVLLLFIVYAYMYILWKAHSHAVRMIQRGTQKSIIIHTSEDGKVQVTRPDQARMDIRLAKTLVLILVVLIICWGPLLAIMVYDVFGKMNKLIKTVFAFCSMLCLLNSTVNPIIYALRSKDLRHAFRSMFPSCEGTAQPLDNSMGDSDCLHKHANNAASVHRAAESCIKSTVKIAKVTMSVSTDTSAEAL

SMILES	EC50 (human CB1 receptor; [1])	ED50 (Mice)	EC50 (human CB1 receptor)
COc1cccc2c(C(=O)N3CCN4CCCC[C@H]4C3)cn(CC3CCCCC3)c12 [Example 17A, (S)-2-{[1-(Cyclohexylmethyl)-7-methoxy-1H-indol-3-yl]carbonyl}-octahydro-2H-Pyrido[1,2-a]pyrazine]	12.6 nM	< 5 µmol/kg	–
CN1CCN(C(=O)c2cn(CC3CCCCC3)c3cc(F)ccc23)CC1 [Example 5T, 1-{[1-(Cyclohexylmethyl)-6-fluoro-1H-indol-3-yl]carbonyl}-4-methylpiperazine]	–	–	251 nM
COc1cccc2c(C(=O)N3CC(C)N(C)C(C)C3)cn(CC3CCCCC3)c12 (centres unmarked) [Example 15F, 1-{[1-(cyclohexylmethyl)-7-methoxy-1H-indol-3-yl]carbonyl}-3,4,5-trimethylpiperazine]	–	< 5 µmol/kg	31.6 nM
CCN1C(C)CN(C(=O)c2cn(CC3CCCCC3)c3c(OC)cccc23)CC1C (centres unmarked) [Example 14, 1-{[1-(Cyclohexylmethyl)-7-methoxy-1H-indol-3-yl]carbonyl}-3,5-dimethyl-4-ethylpiperazine]	–	< 5 µmol/kg	10 nM
CCN1CCN(C(=O)c2cn(CC3CC=CCC3)c3c(OC)cccc23)CC1 (centres unmarked) [Example 5Q, 1-{[1-(Cyclohex-3-enylmethyl)-7-methoxy-1H-indol-3-yl]carbonyl}-4-ethylpiperazine]	–	–	200 nM
COc1cccc2c(C(=O)N3CCN(C)[C@@H](C)C3)cn(CC3CCCCC3)c12 [Example 15O, (S)-1-{[1-(cyclohexylmethyl)-7-methoxy-1H-indol-3-yl]carbonyl}-3,4-dimethylpiperazine]	–	< 5 µmol/kg	25.1 nM
COc1cccc2c(C(=O)N3CCN(CCO)CC3)cn(CC3CCCCC3)c12 [Example 3C, 1-{[1-(Cyclohexylmethyl)-7-methoxy-1H-indol-3-yl]carbonyl}-4-(2-hydroxyethyl)piperazine]	251 nM	–	–
CCN1CCN(C(=O)c2cn(CC3CCCCC3)c3c(F)cccc23)CC1 [Example 5B, 1-{[1-(Cyclohexylmethyl)-7-fluoro-1H-indol-3-yl]carbonyl}-4-ethylpiperazine]	–	–	100 nM
CCN1CCN(C(=O)c2cn(CCN3CCOCC3)c3c(OC)cccc23)CC1 [Ref. 2, 1-Ethyl-4-{[7-methoxy-1-[2-(4-morpholin-yl)ethyl]-1H-indol-3-y]carbonyl}-piperazine, reference compound]	–	–	> 10000 nM
CCN1CCN(C(=O)c2cn(Cc3ccccc3)c3c(OC)cccc23)CC1 [Ref. 3., 1-{[1-Benzyl-7-methoxy-1H-indol-3-yl]carbonyl}-4-ethylpiperazine, reference compound]	–	–	> 10000 nM
CCN1CCN(C(=O)c2cn(C(C)C3CCCCC3)c3ccccc23)CC1 (single isomer, unassigned; (+)) [(+)-5I, (+)-1-{[1-(1-Cyclohexylethyl)-1H-indol-3-yl]carbonyl)-4-ethylpiperazine]	–	–	79.4 nM
CCN1CCN(C(=O)c2cn(CC3CCCC3)c3c(OC)cccc23)CC1 [Example 2, 1-{[1-(Cyclopentylmethyl)-7-methoxy-1H-indol-3-yl]carbonyl}-4-ethylpiperazine]	–	–	316 nM
COc1cccc2c(C(=O)N3CCN4CCCC[C@H]4C3)cn(CC3CCCC3)c12 [Example 17D, (S)-2-{[1-(Cyclopentylmethyl)-7-methoxy-1H-indol-3-yl]carbonyl}-octahydro-2H-pyrido[1,2-a]pyrazine]	31.6 nM	< 5 µmol/kg	–
COc1cccc2c(C(=O)N3CCN4CCC[C@H]4C3)cn(CC3CCCCC3)c12 [Example 17C, (S)-2-{[1-(Cyclohexylmethyl)-7-methoxy-1H-indol-3-yl]carbonyl}-octahydro-2H-Pyrrolo[1,2-a]pyrazine]	25.1 nM	< 5 µmol/kg	–

From US7304064B2, “1-[(indol-3-yl)carbonyl]piperazine derivatives” (N.V. Organon, priority 2002, dated 2007)
